Test results as given in patent publication US20240115744A1, “FIBRIN-BINDING COMPOUNDS FOR IMAGING AND TREATMENT” (Collagen Medical, LLC, priority 2019, published 2024).
*1 amine or outer side, *2 acyl side, *3 side chain or, on linkers, in order; H or OH if unused. Where a SMILES comes first, the peptide text is derived from it. Bridges are numbered along the chain shown (N, C = ends). [ ]: non-standard residue; d: D form. The star is where a group is joined. NODAGA = O=C(O)CN1CCN(CC(=O)O)CCN(C(CCC(=O)*)C(=O)O)CC1; Tyr(3-Cl) = N[C@@H](Cc1ccc(O)c(Cl)c1)C(=O)O; Nicotinoyl(6-F) = O=C(c1ccc(F)nc1)*; X1 = O=C([C@@H]1CC(O)CN1[*:1])[*:2]; Hyp = O=C(O)[C@@H]1C[C@@H](O)CN1

T1: human fibrin (human, UniProt P02671 36-629; P02675 45-491; P02679 27-437, limits assumed)
T1 construct: also called clotted fibrin; immobilized fibrin
T1 sequence (looked up) 1: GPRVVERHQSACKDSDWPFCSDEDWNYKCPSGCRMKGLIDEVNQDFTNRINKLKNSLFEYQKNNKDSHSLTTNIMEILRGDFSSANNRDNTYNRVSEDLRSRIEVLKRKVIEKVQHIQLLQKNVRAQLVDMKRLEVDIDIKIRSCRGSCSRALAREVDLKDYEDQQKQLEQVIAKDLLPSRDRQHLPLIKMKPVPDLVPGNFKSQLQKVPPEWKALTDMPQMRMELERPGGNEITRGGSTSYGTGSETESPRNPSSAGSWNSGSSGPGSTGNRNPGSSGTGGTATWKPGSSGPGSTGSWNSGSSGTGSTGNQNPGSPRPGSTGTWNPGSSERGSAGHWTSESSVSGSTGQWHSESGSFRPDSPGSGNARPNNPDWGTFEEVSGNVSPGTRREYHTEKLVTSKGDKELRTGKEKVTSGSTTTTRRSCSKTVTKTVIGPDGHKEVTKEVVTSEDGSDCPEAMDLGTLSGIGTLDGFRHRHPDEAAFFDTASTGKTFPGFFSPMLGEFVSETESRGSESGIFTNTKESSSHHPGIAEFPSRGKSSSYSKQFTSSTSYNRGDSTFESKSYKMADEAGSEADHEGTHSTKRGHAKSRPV
T1 sequence (looked up) 2: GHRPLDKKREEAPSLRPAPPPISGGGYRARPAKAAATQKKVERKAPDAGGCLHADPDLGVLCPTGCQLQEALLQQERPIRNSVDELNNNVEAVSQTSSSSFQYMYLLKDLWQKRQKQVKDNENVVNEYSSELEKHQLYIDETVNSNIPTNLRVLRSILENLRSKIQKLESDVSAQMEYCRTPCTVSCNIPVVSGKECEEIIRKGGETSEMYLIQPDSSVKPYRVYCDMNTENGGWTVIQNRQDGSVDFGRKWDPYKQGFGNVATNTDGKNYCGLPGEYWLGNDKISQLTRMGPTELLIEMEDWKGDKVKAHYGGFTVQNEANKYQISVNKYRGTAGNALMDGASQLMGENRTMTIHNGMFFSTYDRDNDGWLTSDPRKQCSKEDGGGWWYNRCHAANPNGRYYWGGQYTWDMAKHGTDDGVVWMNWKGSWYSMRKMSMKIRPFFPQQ
T1 sequence (looked up) 3: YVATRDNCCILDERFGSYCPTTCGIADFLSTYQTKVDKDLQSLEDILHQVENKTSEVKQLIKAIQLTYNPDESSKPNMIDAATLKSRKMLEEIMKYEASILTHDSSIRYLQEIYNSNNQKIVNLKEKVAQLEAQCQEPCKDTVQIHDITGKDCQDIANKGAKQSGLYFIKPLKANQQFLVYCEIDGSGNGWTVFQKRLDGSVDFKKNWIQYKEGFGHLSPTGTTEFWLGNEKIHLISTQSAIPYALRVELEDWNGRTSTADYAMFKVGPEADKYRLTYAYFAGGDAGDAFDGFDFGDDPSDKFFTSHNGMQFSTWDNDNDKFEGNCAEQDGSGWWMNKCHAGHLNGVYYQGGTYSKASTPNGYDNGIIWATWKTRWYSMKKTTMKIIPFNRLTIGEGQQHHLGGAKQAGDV


Tests used:
[1] = target: T2, soluble fibrin fragment DD(E) (Homo sapiens, UniProt P02671+P02675+P02679, DEL433-453); assay: Fluorescence polarization DD(E) binding/displacement assay; conditions: for Ki: displacement of TRITC-labelled peptide from DD(E), TBS·Ca with 2% DMSO, estimated uncertainty ±10%, read-out: Ki; for Kd: sub-micromolar affinity, read-out: affinity (Kd) to fibrin as assessed by DD(E) assay
T2 construct: partial plasmin digestion of purified fibrin gel followed by size-exclusion chromatographic purification; made in house
Method: DD(E) was prepared using a published procedure which involved partial plasmin digestion of purified fibrin gel followed by size-exclusion chromatographic purification, and purity was assessed by SDS-PAGE. Peptides modified at the N-terminus with tetramethyl-rhodamine (TRITC) dye bind to DD(E). Direct fluorescent peptide binding to DD(E) was measured by a fluorescence polarization (FP) assay. The anisotropy (robs) of the fluorescently labeled peptides binding to DD(E) (0-20 μM) was measured in Tris buffered saline (50 mM Tris, 100 mM NaCl and 2 mM CaCl2) at fixed compound concentrations, and the data were fit to a single site model (Eq. 1) to obtain the dissociation constant (Kd) for the DD(E)·(fluorescent peptide) complex.
Displacement of the fluorescent peptide by non-fluorescent compound was measured to determine inhibition constants (Ki). In the presence of an inhibitor, an apparent dissociation constant for the fluorescent compound (Kd app) is determined using Eq. 2. The inhibition constant Ki is related to Kd app by Eq. 2, wherein Kd is the true dissociation constant of the fluorescent compound measured in the absence of inhibitor.
Non-labeled peptide binding to DD(E) was measured by a compound displacement assay, where a DD(E)/Fl·pep complex formed at fixed concentrations of DD(E) and Fl·pep was titrated with increasing concentrations of unlabeled compound. The compound was assayed by mixing DD(E) (4.0 μM, 10 μL) and TRITC (0.1 μM, 10 μL) with increasing concentrations of competing peptide (0.4-100 μM, 20 μL) in TBS·Ca with 2% DMSO in a final volume of 40 μL. Fluorescence polarization of the samples (10 μL, triplicate wells) in ascending concentrations was measured in a 384-well microplate (Corning flat black plate), using a Tecan Infinite 200 Pro fluorescence microplate reader equipped with fluorescence polarization filters, a 535 nm excitation filter and a 590 nm fluorescence emission filter. Average polarization (mP units) readings for each dilution of the compound of interest was converted to anisotropy (r) using Eq. 3.
The data defined a displacement curve (robs vs. [Peptide]), and the inhibitory binding constant, Ki, was determined by least squares fitting of the data (estimated uncertainty in Ki±10%). See Table 2 for the Ki values for the Compounds from Example 1.

[2] = Stability in rat plasma at 37° C. up to 4 h; assay type: in vitro ADME; conditions: after 4 h
Method: The six compounds identified in Example 3 (Compounds 2, 3, 4, 5, 6, and 7) were assayed for stability in rat plasma at 37° C. for up to 4 h. Compounds were dissolved in DMSO to a make a stock solution (0.6 mM). Plasma (995 μL) was spiked with peptide stock solution (5 μL). Incubations were carried at a test compound concentration of 3 μM with a final DMSO concentration of […]. The spiked plasma samples were incubated at 37° C. for 4 h. Aliquots (300 μL) were removed at 0, 0.5, 1, 2 and 4 h and reactions were terminated by adding 600 μL of cold acetonitrile with 0.1% formic acid containing carbutamide (25 μg/mL) as an internal standard. Simultaneously, a plasma sample (995 μL) containing a mixture of benfluorex, propranolol and nortriptyline (40 μM in DMSO) control compounds was also incubated alongside each batch of test compounds and terminated similarly. […] Following centrifugation, the concentration of the compound of interest in the supernatant was quantified by LCMS. […] The peak area for each detected compound was measured to determine the % remaining of each compound and the result was compared with standards of pure compound and compound immediately isolated from plasma (t=0 sample). All assay samples were analyzed in triplicate. […]

[3] = Radio-HPLC analysis of blood for identification of metabolites; assay type: in vivo; conditions: rat plasma 15 and 90 min after injection
Method: Adult male Wistar rats were anesthetized by isoflurane (1-2% in medical air). Body temperature was maintained at 37° C. using a thermo-regulated heating pad. The right femoral vein and artery were cannulated for compound injection and blood sampling, respectively. Endothelial injury was induced by crush injury to the right common carotid artery (1-2 cm proximal to the carotid bifurcation) by clamping the vessel with a hemostat for 5 minutes. Immediately following the surgical procedures, rats were placed in a micro-PET/CT scanner. Compound (200-600 μL) was injected, PET-CT images were acquired, and blood samples were drawn from the femoral artery prior to compound injection and at 2, 5, 10, 15, 30, 60, 90, 120 min post injection. Tissues were harvested at the end for ex vivo analyses.
Aliquots of the 15 and 90 min plasma samples were injected into a HPLC and fractions were collected each 30 seconds. The fractions counted were compared to pure compound injected into the same column in order to identify the number of metabolites and the fraction of intact compound circulating at each time point.

human fibrin [4] = target: T1, human fibrin; assay: radioactivity plate assay on immobilized human fibrin, in human plasma
human fibrin [5] = target: T1, human fibrin; assay: radioactivity plate assay on immobilized human fibrin, in TBS buffer
Method: Human fibrinogen (1 g) was dissolved in 30 mL of TBS buffer (50 mM Tris, 150 mM NaCl, 5 mM sodium citrate, pH 7.4) and dialyzed in a Slyde-a-Lyzer (20 000 MWCO, Cassette G2) at room temperature. After two changes of buffer, the fibrinogen was centrifuged (10 min, 2000×g) to remove undissolved material. Fibrinogen concentration was determined by measuring the absorbance at 280 nm. Stock fibrinogen solution concentration was 32.1 mg/mL. Fibrin plates with alternating rows of clotted fibrin and empty wells were prepared by polymerizing fibrinogen (100 μL; 2.5 mg/mL) with thrombin (1 U/mL) in TBS·citrate supplemented with 7 mM CaCl₂ in the wells of a 96 well polystyrene microtiter plate (Immulon-II®). […] Clottable protein in individual fibrinogen batches was determined by measuring 280 nm absorbance of the soluble fraction of the solution before and after thrombin treatment, and was generally ≥96% (Fibrin concentration, 7.56 μM).
An aliquot (100 μL) from a known activity (52 μCi in 10 mL TBS buffer) of Compound ¹⁸F-7 was added to a series of 12 known concentrations (0.01-50 μM) of cold Compound 7 (550 μL) in TBS buffer and mixed well to prepare 12 stock solutions. […] All aliquots from supernatants as well as an aliquot (90 μL) from each stock solution were weighed and activity of each was measured using a Cobra 5002 gamma counter. […]

Row | Ki [1] | Kd [1] | stability in rat plasma [2] | metabolites / intact compound in blood [3] | Kd (human fibrin [4]) | Kd (human fibrin [5]) | Molecule
1 | 580 nM | < 600 nM | greatest stability |  |  |  | CC[C@H](C)[C@H](NC(=O)[C@H](Cc1ccc(O)cc1)NC(=O)[C@@H]1CSSC[C@H](NC(=O)[C@@H](CCC(=O)O)NC(=O)[C@H](Cc2ccc(O)cc2)NC(=O)c2ccc(F)nc2)C(=O)N2C[C@H](O)C[C@H]2C(=O)N[C@@H](Cc2ccc(O)c(Cl)c2)C(=O)NCC(=O)N[C@@H](CC(C)C)C(=O)N1)C(=O)N[C@@H](CCC(N)=O)C(N)=O [Compound 7, -Y-e-C-Hyp-Y(3-Cl)-G-L-C-Y-I-Q-] ({Nicotinoyl(6-F)}-Y[dE]C[Hyp][Tyr(3-Cl)]GLCYIQ-NH2; disulfide 3-8)
2 | 340 nM | < 600 nM | greatest stability |  |  |  | CC[C@H](C)[C@H](NC(=O)[C@H](Cc1ccc(O)cc1)NC(=O)[C@@H]1CSSC[C@H](NC(=O)[C@@H](CCC(=O)O)NC(=O)[C@@H](Cc2ccc(O)cc2)NC(=O)c2ccc(F)nc2)C(=O)N2C[C@H](O)C[C@H]2C(=O)N[C@@H](Cc2ccc(O)c(Cl)c2)C(=O)NCC(=O)N[C@@H](CC(C)C)C(=O)N1)C(=O)N[C@@H](CCC(N)=O)C(N)=O [Compound 6, -y-e-C-Hyp-Y(3-Cl)-G-L-C-Y-I-Q-] ({Nicotinoyl(6-F)}-[dY][dE]C[Hyp][Tyr(3-Cl)]GLCYIQ-NH2; disulfide 3-8)
3 |  |  |  | rapidly formed metabolites |  |  | CC[C@H](C)[C@H](NC(=O)[C@H](Cc1ccc(O)cc1)NC(=O)[C@@H]1CSSC[C@H](NC(=O)[C@@H](CCC(=O)O)NC(=O)[C@H](Cc2ccc(O)cc2)NC(=O)CCC(C(=O)O)N2CCN(CC(=O)O)CCN(CC(=O)O)CC2)C(=O)N2CC(O)C[C@H]2C(=O)N[C@@H](Cc2ccc(O)c(Cl)c2)C(=O)NCC(=O)N[C@@H](CC(C)C)C(=O)N1)C(=O)N[C@@H](CCC(N)=O)C(N)=O (stereo partly drawn) [Compound ^68Ga-16, metal not drawn] ({NODAGA}-Y[dE]C[X1][Tyr(3-Cl)]GLCYIQ-NH2; disulfide 3-8)
4 |  |  |  |  | 1800 nM | 1600 nM | {6‑(18F)fluoronicotinoyl}-Y[dE]C[Hyp][Tyr(3-Cl)]GLCYIQ-NH2 (disulfide 3-8, In the plate assay the tracer was mixed with 0.01-50 µM cold Compound 7; also called the fluorine-18 form of Compound 7) [Compound 18F-7]
